From paper PMC7367925, “The EU-ToxRisk method documentation, data processing and chemical testing pipeline for the regulatory use of new approach methods” (Archives of Toxicology, 2020)

Key:
[1] = system: U-2 OS reporter cell lines battery; test: CALUX reporter gene assay battery as a whole; settings: all CALUX assays, 13 concentrations, 24 h exposure
[2] = target: T1, PPARα (Homo sapiens, UniProt Q07869); test: PPARa CALUX; assay type: cell-based; settings: 24 h exposure, lowest effect level PC10, means from 3 assay runs
T1 construct: host or cells: U-2 OS
T1 sequence (Q07869 1-468): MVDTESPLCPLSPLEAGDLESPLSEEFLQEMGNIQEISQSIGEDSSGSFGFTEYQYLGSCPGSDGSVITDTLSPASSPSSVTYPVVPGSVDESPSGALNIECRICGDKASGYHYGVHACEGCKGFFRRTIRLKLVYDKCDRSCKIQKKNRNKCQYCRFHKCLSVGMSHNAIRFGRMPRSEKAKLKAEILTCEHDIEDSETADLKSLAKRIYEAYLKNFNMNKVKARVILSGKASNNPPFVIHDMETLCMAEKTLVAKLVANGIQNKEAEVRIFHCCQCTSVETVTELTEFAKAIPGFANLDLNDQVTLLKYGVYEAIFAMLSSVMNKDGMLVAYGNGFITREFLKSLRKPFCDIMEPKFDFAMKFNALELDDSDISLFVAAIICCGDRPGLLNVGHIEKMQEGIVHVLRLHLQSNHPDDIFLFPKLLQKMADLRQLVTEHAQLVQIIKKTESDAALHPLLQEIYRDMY
Description: (§1) After 24 h, exposure medium was prepared. […] All samples were tested in triplicates. […] Fig. SM_4. […] Fig. SM_4.
(§2) Cell line Endpoint effect Reference compound […]
PPARa CALUX Peroxisomeproliferator activated receptor agonists PC10 GW7647 […]
(§3) Supplementary Material SM_4
(§4) Overview of CALUX assays.
(§5) This is defined as the concentration of test compound […]
(§6) for an antagonist assay is a PC20.
(§7) PC = positive control. FI = fold induction. PC10: concentration where test compound causes an activation equal to 10% of the maximum effect (positive control). PC20: concentration where test compound causes […]
(§8) FI=1.5: concentration where test
(§9) (A) exemplary graph of concentration- […]
(§10) receptor antagonism assay with PC20 as lowest-effect-level. (C) exemplary graph for assay with 1.5 fold inductionas lowest effect level. 9

[3] = target: T2, PPARδ (Homo sapiens, UniProt Q03181); test: PPARd CALUX; assay type: cell-based; settings: 24 h exposure, lowest effect level PC10, means from 3 assay runs
T2 construct: host or cells: U-2 OS
T2 sequence (Q03181 1-441): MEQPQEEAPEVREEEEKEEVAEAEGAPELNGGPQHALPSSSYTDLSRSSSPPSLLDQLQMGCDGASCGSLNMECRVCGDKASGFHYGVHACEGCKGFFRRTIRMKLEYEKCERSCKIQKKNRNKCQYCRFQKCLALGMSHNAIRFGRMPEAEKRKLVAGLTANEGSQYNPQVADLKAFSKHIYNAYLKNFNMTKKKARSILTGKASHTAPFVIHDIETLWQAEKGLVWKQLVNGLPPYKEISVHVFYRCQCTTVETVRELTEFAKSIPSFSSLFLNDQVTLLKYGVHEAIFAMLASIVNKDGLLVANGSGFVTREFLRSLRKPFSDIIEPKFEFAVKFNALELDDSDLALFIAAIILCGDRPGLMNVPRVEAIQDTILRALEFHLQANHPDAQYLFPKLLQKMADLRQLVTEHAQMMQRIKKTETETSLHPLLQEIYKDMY

[4] = system: p53-dependent pathway activation / genotoxicity; assay type: cell-based, human; settings: 24 h exposure, lowest effect level FI=1.5, means from 3 assay runs
Description: as §1, §3, §4, §5, §6, §7, §8, §9, §10

[5] = target: T3, PPARγ (Homo sapiens, UniProt P37231); test: PPARg2 CALUX; assay type: cell-based; settings: 24 h exposure, lowest effect level PC10, means from 3 assay runs
T3 construct: host or cells: U-2 OS
T3 sequence (P37231 1-505): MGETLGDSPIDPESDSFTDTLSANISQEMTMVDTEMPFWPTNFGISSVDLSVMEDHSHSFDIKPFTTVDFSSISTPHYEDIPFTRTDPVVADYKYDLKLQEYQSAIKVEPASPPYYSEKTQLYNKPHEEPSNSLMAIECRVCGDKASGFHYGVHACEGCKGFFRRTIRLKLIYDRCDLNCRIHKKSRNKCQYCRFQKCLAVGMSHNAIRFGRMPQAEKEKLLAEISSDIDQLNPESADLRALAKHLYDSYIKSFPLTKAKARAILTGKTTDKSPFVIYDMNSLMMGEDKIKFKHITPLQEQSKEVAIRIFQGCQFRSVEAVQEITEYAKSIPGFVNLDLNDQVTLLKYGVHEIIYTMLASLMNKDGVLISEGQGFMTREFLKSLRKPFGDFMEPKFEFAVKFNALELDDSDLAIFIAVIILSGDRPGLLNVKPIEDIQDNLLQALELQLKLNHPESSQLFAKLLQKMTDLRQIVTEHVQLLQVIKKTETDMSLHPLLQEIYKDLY
Description: as §1, §2, §3, §4, §5, §6, §7, §8, §9, §10

SMILES: CC(C)Cc1ccc(C(C)C(=O)O)cc1 (centres unmarked) [Ibuprofen]
- response profile over the CALUX battery (in words) [1]: activated all three isoforms of the peroxisome proliferator activated receptor
- PoD PPARα - ago [2]: 4.3 -log(M)
- PoD PPARδ - ago [3]: 4.0 -log(M)
- PoD p53 [4]: 3.0 -log(M)
- PoD PPARγ - ago [5]: 4.0 -log(M)
